Measured values from patent publication US11098038B2, “Imidazole-based anticancer agents and derivatives thereof, and methods of making and using same” (The University of Toledo, priority 2017, dated 2021).

Test system: chromosome alignment, centromeres, and spindle body
Experiment: Fluorescence microscopy of chromosome alignment, centromeres and spindle body
Type: cell-based
Conditions: cells treated for several hours, FIGS. 8A-8B
From the text: FIGS. 8A-8B: Color images showing effects of compound 25 on chromosome alignment, centromeres, and spindle body. Microtubules that make up the mitotic spindle are detected with an antibody linked to a green fluorophore, which was detected with a fluorescence microscope. Centromeres were detected with a far red fluorophore (they are pseudocolored pink). DNA was detected with Hoechst DNA stain, which is blue.
In normal cells (FIG. 8A, upper two panels), chromosomes line up between the spindle poles at metaphase. In cells treated with compound 25 for several hours (FIG. 8A, lower two panels), cells still enter mitosis but centromeres are found all over the cell (not just in the middle between the poles of the spindle). […] However, when ZM is combined with compound 25, what was observed was a very dramatic disruption of spindle architecture. […] Without wishing to be bound by theory, it is believed that both Aurora B and the targets of compound 25 work in parallel to control tubulin function. When either one is inhibited alone, there is no effect since the other pathway compensates. When both are inhibited, the defect is detected.

For `COc1cc2c(Nc3ccc(NC(=O)c4ccccc4)cc3)ncnc2cc1OCCCN1CCOCC1` [ZM447439, reference compound], the “Chromosome alignment / centromere position” value was “Many misaligned chromosomes”.
